Activity calls are given as the source filed them. The rule behind the calls is not given here.

By Kd is commonly meant the free concentration of one partner at which half of the binding sites on the other are occupied at equilibrium, for simple one-to-one binding.

This test has as its target Influenza A virus M2 proton channel (A/TW/4845/1999 H1N1). In words: M2 proton channel binding, NMR based, influenza A virus H1N1 strain (AID 1549). Conditions: NMR binding screen, M2 protein.
For `COc1ccc(N=C2NC(=O)CS2)cc1`, the Kd was > 4 mM (inactive). `COc1ccc(CN2CCNC(=O)C2CC(=O)O)cc1C` (centres undefined): the Kd was > 4 mM (inactive). In the case of `CC1=NN(c2ccc(N)cc2)C(=O)C1`, the Kd is > 4 mM (inactive). For `c1ccc(Cn2c(Nn3cnnc3)nc3ccccc32)cc1`, the Kd is > 4 mM (inactive). As for `CC(C)=CC(=O)Nc1ccccc1Br`, the Kd is > 4 mM (inactive).

Turning to `COc1cccc2c(=O)n(CC(N)=O)ccc12`, the Kd is > 4 mM (inactive).

On to `CSc1nc(C)c(Oc2ccccc2)c(=O)n1C`, for which the Kd is > 4 mM (inactive).

Consider `NC(=O)CS(=O)(=O)c1ccc(Cl)cc1`, for which the Kd was > 4 mM (inactive). For `COc1ccc(NC(=O)C2CC(=O)N=C(N)S2)cc1` (centres undefined) the value was > 4 mM (inactive). Take `CC(=O)N1CCN(C2CCSC2)CC1` (centres undefined): the Kd was > 4 mM (inactive). In the case of `CC(=O)O[C@@H]1CC2C(C)(C)CCC(=O)[C@]2(C)C2CC[C@@]3(C)[C@H](c4ccoc4)OC(=O)C4OC43[C@@]21C` (some centres undefined), the Kd is > 4 mM (inactive). As for `O=C(CSc1ccnc(=O)[nH]1)NCc1ccccc1`, the Kd is > 4 mM (inactive). Take `NC(=O)CC1Nc2cccc3cccc(c23)NC1=O` (centres undefined): the Kd is > 4 mM (inactive). For `NC(=O)CSc1ncnc2ccccc12` the value was > 4 mM (inactive). For the compound `CC1CC[C@]2(NC1)O[C@H]1CC3C4CC[C@H]5C[C@@H](O)CC[C@]5(C)C4CC[C@]3(C)[C@H]1[C@@H]2C` (some centres undefined), the Kd is > 4 mM (inactive).

Turning to `O=C(O)c1cccnc1N1CCOCC1`, the Kd is > 4 mM (inactive). For `O=C(O)c1c[nH]c2ccccc12` the value was > 4 mM (inactive).

On to `O=C(NCCO)c1cc2ccccc2c(=O)s1`, for which the Kd is > 4 mM (inactive). With `C/C1=C\CCC(=O)C2CC(C)(C)C2CC1` (centres undefined), the Kd was > 4 mM (inactive).

Take `COc1ccc2nc(NC(=O)c3cnccn3)sc2c1`: the Kd was > 4 mM (inactive). For `C=C[C@@H](C1=CC(=O)C(OC)=C(OC)C1=O)c1ccccc1`, the Kd was > 4 mM (inactive). For `CC(=O)Oc1ccc(/C=C/c2cc(OC(C)=O)cc(OC(C)=O)c2)cc1` the value was > 4 mM (inactive).

Take `O=C(O)CCN1CCc2ccccc2C1c1ccncc1` (centres undefined): the Kd is > 4 mM (inactive). As for `CSc1nc(O)cc(=O)[nH]1`, the Kd was > 4 mM (inactive). For `COc1ccc(NC(=O)CSc2nccc(=O)[nH]2)cc1` the value was > 4 mM (inactive); for `CC1CN(Cc2ccccn2)CCC1=O` (centres undefined), > 4 mM (inactive); for `c1ccc(Cn2cccc2)nc1`, > 4 mM (inactive). As for `O=C1CC(NCc2ccco2)C(=O)NN1` (centres undefined), the Kd was > 4 mM (inactive).

As for `c1cncc(Cn2cccc2)c1`, the Kd was > 4 mM (inactive). With `O=C(Nc1ccc(F)cc1F)c1ccco1`, the Kd is > 4 mM (inactive). Then `Cc1cc(C)n(/N=C\c2cccs2)c(=O)c1C(N)=O`, with > 4 mM (inactive); and `Nc1ccc(O)cn1`, with > 4 mM (inactive); and `O=C(C1CCC(C(=O)N2CCCC2)CC1)N1CCCC1` (centres undefined), with > 4 mM (inactive). For the compound `COCCOc1nc2ccccc2nc1C`, the Kd was > 4 mM (inactive). For `CNc1ccccc1C(=O)O` the value was > 4 mM (inactive); for `O=C(Nn1cnnc1)c1cc2c(s1)CCCC2`, > 4 mM (inactive); for `O=C(c1cnsn1)N1CCN(c2ccccn2)CC1`, > 4 mM (inactive). For `CCCc1cc(=O)[nH]c2nnc(SCC(C)=O)n12` the value was > 4 mM (inactive); for `Cc1ccccc1NC(=O)C1CCC(=O)N1` (centres undefined), > 4 mM (inactive); for `Cc1cccc(CO)n1`, > 4 mM (inactive). For `Cn1cnc2cc(NC(=O)c3ccco3)ccc21` the value was > 4 mM (inactive). With `Nc1nc(-c2nc3ccccc3[nH]2)cs1`, the Kd was > 4 mM (inactive).

For `O=C1CSC(=Nc2ccccc2[N+](=O)[O-])N1`, the Kd is > 4 mM (inactive).

Consider `N#Cc1nc(-c2cccs2)oc1N1CCOCC1`, for which the Kd is > 4 mM (inactive). Then `O=C(Nc1ccc2c(c1)OCO2)c1ccc(=O)[nH]n1`, with > 4 mM (inactive); and `O=C(Nc1ccon1)c1ccc(Br)o1`, with > 4 mM (inactive); and `CC1(C)C=Cc2c(cc3occ(-c4ccc5c(c4)OCO5)c(=O)c3c2O)O1`, with > 4 mM (inactive). For `COCC(=O)Nc1cccc2ccccc12` the value was > 4 mM (inactive); for `O=C(Nc1ccc2c(c1)OCO2)c1c(F)cccc1F`, > 4 mM (inactive). For `CCOCC(=O)NCc1n[nH]c(=O)c2ccccc12` the value was > 4 mM (inactive). In the case of `CCOC(=O)c1c(C)cc(O)c(C=O)c1O`, the Kd was > 4 mM (inactive). Then `Cc1nc(-c2ccc(C(=O)N3CCOCC3)cc2)cs1`, with > 4 mM (inactive); and `NCc1ccc2occc2c1`, with > 4 mM (inactive); and `c1ccc(-c2csc3ncn4nnnc4c23)cc1`, with > 4 mM (inactive). For `Cc1nnsc1C(=O)O`, the Kd was > 4 mM (inactive). For `Oc1ccccc1-c1cc(C(F)(F)F)[nH]n1` the value was > 4 mM (inactive); for `CN1CCN(c2nc3c(c(=O)[nH]2)CCCC3)CC1`, > 4 mM (inactive). For `CC1(C)C(=O)C=C[C@@]2(C)C1C[C@@H](O)[C@]1(C)C2CC[C@@]2(C)[C@H](c3ccoc3)OC(=O)[C@H]3O[C@]321` (some centres undefined) the value was > 4 mM (inactive). Consider `OCc1nc2ccccc2s1`, for which the Kd was > 4 mM (inactive). As to `O=c1[nH]cc(N=Cc2ccc(F)cc2)c(=O)[nH]1`, the Kd was > 4 mM (inactive). For `C=C1C2CC[C@H]3[C@]4(C)C[C@H](OC5OC(CO)C(OS(=O)(=O)O)C(OS(=O)(=O)O)C5OC(=O)CC(C)C)C[C@@H](C(=O)O)[C@H]4CC[C@]3(C2)[C@H]1O` (some centres undefined) the value was > 4 mM (inactive); for `O=C(OCc1c(F)cccc1Cl)c1cnccn1`, > 4 mM (inactive); for `COc1ccc([C@H]2Oc3c(I)c(OC)cc(OC)c3C[C@@H]2O)cc1OC`, > 4 mM (inactive). Then `O=C(O)c1cnn2ccccc12`, with > 4 mM (inactive); and `O=C(O)CC(O)c1nc2ccccc2[nH]1` (centres undefined), with > 4 mM (inactive). For the compound `COc1ccc2c(c1)[n+](=O)c(C(C)=O)c(C)n2[O-]`, the Kd was > 4 mM (inactive).

For `CCC1=Nc2ccccc2-c2nnc(SC)nc2O1`, the Kd was > 4 mM (inactive). For `Cc1nn(CC(=O)Nc2ccccn2)c(=O)c2ccccc12` the value was > 4 mM (inactive); for `Cc1cc(=O)n2ccc(CN3CCOCC3)c(O)c2n1`, > 4 mM (inactive). Then `Cc1nc2cc(NC(=O)Nc3nccs3)ccc2n1C`, with > 4 mM (inactive); and `CC(C)NC(=O)c1cc(-n2cnnc2)ccc1Cl`, with > 4 mM (inactive).

On to `O=C(Nc1cccnc1)c1cnn2cccnc12`, for which the Kd is > 4 mM (inactive). Then `O=C1c2cccnc2C(=O)N1Cc1ccco1`, with > 4 mM (inactive); and `Cc1ccc(C)c(S(=O)(=O)NCc2cccnc2)c1`, with > 4 mM (inactive). For `O=C(c1cnsn1)N1CCN(c2ccccc2)CC1` the value was > 4 mM (inactive); for `O=C(O)C1CC2CC1CCC2O` (centres undefined), > 4 mM (inactive). For `CC(=O)Nc1ccc(Cl)c(C(N)=O)c1` the value was > 4 mM (inactive); for `Cc1nc(-c2cnccn2)sc1C(=O)O`, > 4 mM (inactive). With `CN(C)C(=O)Oc1ccc(-c2nnco2)cc1`, the Kd is > 4 mM (inactive). For `CC(=O)N(C)Cc1nc2ccccc2n1C` the value was > 4 mM (inactive); for `O=C(NN1CCOCC1)c1cccs1`, > 4 mM (inactive).

Turning to `COc1ccc2c(c1)c1n[nH]c(=S)nc1n2C`, the Kd is > 4 mM (inactive). For `C[C@@H]1CC[C@H]2[C@@H](C)C(=O)O[C@@H]3OC4(C)CC[C@@H]1[C@]32OO4`, the Kd is > 4 mM (inactive). With `NC(=O)C12CC3CC(C1)C(=O)C(C3)C2`, the Kd is > 4 mM (inactive).

Turning to `Cc1cc(C)n(S(=O)(=O)c2cc(C)c(C)cc2C)n1`, the Kd was > 4 mM (inactive). Consider `CC1(C)CC[C@]2(C(=O)O)CC[C@]3(C)C(=CCC4[C@@]5(C)CC[C@H](O)[C@@](C)(CO)C5CC[C@]43C)C2C1` (some centres undefined), for which the Kd is > 4 mM (inactive). Then `Cc1cc(=O)[nH]c(N)n1`, with > 4 mM (inactive); and `Cc1nc2c(n1O)CCc1c-2no[n+]1[O-]`, with > 4 mM (inactive); and `Cc1cc(C)n2c(SCc3cccs3)nnc2n1`, with > 4 mM (inactive). Then `CC1/C(=N/O)C[C@@H]2C[C@H]1C2(C)C` (some centres undefined), with > 4 mM (inactive). Take `CN(c1ccccc1C(=O)N1CCCC1)S(C)(=O)=O`: the Kd is > 4 mM (inactive). For the compound `Oc1cnc2ccccc2c1CN1CCOCC1`, the Kd is > 4 mM (inactive). Then `NS(=O)(=O)c1ccc2c3c(cccc13)C(=O)N2`, with > 4 mM (inactive).

Turning to `COc1ccc2[nH]cc(CN(C)C)c2c1`, the Kd was > 4 mM (inactive). Take `Cc1cc(O)c(C)c(O)c1C(=O)O`: the Kd is > 4 mM (inactive). Regarding `CC1=CCc2c(cc3oc(C)cc(=O)c3c2O)OC1`, the Kd was > 4 mM (inactive).

As to `NS(=O)(=O)c1ccc(NC(=O)c2ccccc2F)cc1`, the Kd is > 4 mM (inactive).

Turning to `CCn1cnc2cc(NCc3ccncc3)ccc21`, the Kd was > 4 mM (inactive).

On to `Cn1c(NCC(=O)O)nc2c1c(=O)[nH]c(=O)n2C`, for which the Kd was > 4 mM (inactive). Then `Cn1[nH]c(C(F)(F)F)cc1=O`, with > 4 mM (inactive); and `CC(=O)c1cccc(NC(=O)N2CCc3ccccc3C2)c1`, with > 4 mM (inactive); and `O=C(CC1Nc2ccccc2NC1=O)Nc1ccc(O)cc1` (centres undefined), with > 4 mM (inactive).

With `Cc1ccccc1NC(=O)C1CC(=O)N=C(N)S1` (centres undefined), the Kd is > 4 mM (inactive).

Take `Cc1n[nH]c(C)c1N`: the Kd is > 4 mM (inactive).

(Values after PubChem BioAssay AID1549 (Sanford-Burnham Center for Chemical Genomics, 2009).)
